Consider eight molecules from PubChem BioAssay (NCI).

Some test systems named below: LOX IMVI melanoma; RPMI-8226 leukemia; MALME-3M melanoma; CCRF-CEM leukemia; NCI-H460 lung; HCT-116 colon; SF-268 CNS; 786-0 renal; SK-MEL-2 melanoma; HT29 colon.
Common to all, as to assay: NCI tumour cell line growth inhibition, 48 h

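Assay format: 96-well plates, 48-hour exposure. Abbreviation: GI50, concentration required for 50% inhibition of growth. At the TGI there is no net growth.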

For `NC(=NCCCOc1ccc(Cl)cc1)Nc1ccc(C(F)(F)F)cc1`, the GI50 in the assay with LOX IMVI melanoma was 1.46 µM; with RPMI-8226 leukemia it was 1.75 µM; in the assay with MALME-3M melanoma, 1.93 µM; in the assay with CCRF-CEM leukemia, 2.59 µM; in the assay on NCI-H460 lung, 2 µM; in the assay on HCT-116 colon, 1.32 µM. In addition, the GI50 was 2.77 µM in the assay with SF-268 CNS, 1.65 µM with 786-0 renal, 1.87 µM in the assay on SK-MEL-2 melanoma and 1.88 µM in the assay with HT29 colon. For the same molecule, the TGI in the assay on LOX IMVI melanoma amounted to 2.77 µM; in the assay with RPMI-8226 leukemia, 4.32 µM; with MALME-3M melanoma, 4.01 µM; in the assay with CCRF-CEM leukemia, 9.75 µM; with NCI-H460 lung, 4.97 µM; in the assay on HCT-116 colon, 2.74 µM. Further, the TGI with SF-268 CNS was 15.9 µM; with 786-0 renal it was 4.32 µM; in the assay with SK-MEL-2 melanoma it was 3.88 µM; with HT29 colon, 5.55 µM.
With `CC(=O)OC1Oc2ccccc2-c2oc(=O)c(-c3cc(=O)oc4cc(O)ccc34)cc21` (stereo not given), the GI50 in the assay on LOX IMVI melanoma is 17.8 µM; in the assay on RPMI-8226 leukemia, 13.1 µM; in the assay with MALME-3M melanoma it was 20.9 µM; in the assay with CCRF-CEM leukemia, 9.38 µM; with NCI-H460 lung, 21.5 µM; in the assay on HCT-116 colon it was 25 µM. Also, the GI50 in the assay with SF-268 CNS was 26.2 µM; in the assay on 786-0 renal it was 16.2 µM; in the assay with SK-MEL-2 melanoma it was 19.2 µM; with HT29 colon, 26.4 µM. Also, the TGI in the assay on LOX IMVI melanoma is 37.5 µM; with RPMI-8226 leukemia it was 44.1 µM; in the assay with MALME-3M melanoma, 59.2 µM; with CCRF-CEM leukemia, 40.8 µM; with NCI-H460 lung, 73.7 µM; with HCT-116 colon, greater than 100 µM. The TGI in the assay on SF-268 CNS was 80.3 µM; in the assay with 786-0 renal, 38.4 µM; in the assay with SK-MEL-2 melanoma it was 89 µM; in the assay with HT29 colon it was greater than 100 µM.
For the molecule `CC(SC(C)C(=O)N/N=C/c1cccc(Cl)c1)C(=O)N/N=C\c1cccc(Cl)c1` (stereo not given), the GI50 in the assay with LOX IMVI melanoma was 3.03 µM; in the assay with RPMI-8226 leukemia, 17.9 µM; with MALME-3M melanoma it was 13.9 µM; in the assay with CCRF-CEM leukemia, 5.77 µM; in the assay with NCI-H460 lung it was 2.34 µM; in the assay on HCT-116 colon, 2.65 µM. Moreover, the GI50 in the assay on SF-268 CNS was 10.2 µM; in the assay on 786-0 renal, 14.5 µM; with SK-MEL-2 melanoma, 6.9 µM; with HT29 colon it was 11.6 µM. For the same molecule, the TGI was 10.5 µM with LOX IMVI melanoma; greater than 100 µM in the assay on RPMI-8226 leukemia; 35.7 µM in the assay on MALME-3M melanoma; 52.3 µM in the assay with CCRF-CEM leukemia; 4.92 µM in the assay with NCI-H460 lung; 7.94 µM with HCT-116 colon. For the same molecule, the TGI was 35.5 µM in the assay with SF-268 CNS, 35.5 µM in the assay on 786-0 renal, 25.3 µM in the assay on SK-MEL-2 melanoma and 32.1 µM in the assay with HT29 colon.
For the molecule `Cc1ccc(S(=O)(=O)NCC2CCCCC2=O)cc1` (stereo not given), the TGI in the assay on LOX IMVI melanoma, with RPMI-8226 leukemia, with MALME-3M melanoma, in the assay on CCRF-CEM leukemia, with NCI-H460 lung and in the assay on HCT-116 colon was greater than 100 µM throughout. Further, the TGI in the assay on SF-268 CNS, in the assay with 786-0 renal, in the assay with SK-MEL-2 melanoma and with HT29 colon was greater than 100 µM in each case.
As for `Cc1c2cccnc2c(C)c2c1c1cc(CO)ccc1n2C`, the GI50 in the assay with LOX IMVI melanoma is 1.5 µM; with RPMI-8226 leukemia, 2.09 µM; in the assay on MALME-3M melanoma it was 1.93 µM; in the assay on CCRF-CEM leukemia, 1.87 µM; in the assay on NCI-H460 lung it was 1.23 µM; with HCT-116 colon, 0.42 µM. Moreover, the GI50 with SF-268 CNS was 2.29 µM; in the assay with 786-0 renal, 2.17 µM; with SK-MEL-2 melanoma it was 2.87 µM; in the assay with HT29 colon it was 1.92 µM. For the same molecule, the TGI in the assay with LOX IMVI melanoma was found to be 4.82 µM; in the assay with RPMI-8226 leukemia, 7.3 µM; with MALME-3M melanoma it was 7.82 µM; in the assay with CCRF-CEM leukemia it was 45.7 µM; with NCI-H460 lung it was 6.12 µM; in the assay with HCT-116 colon, 3.26 µM. In addition, the TGI in the assay with SF-268 CNS amounted to 15.1 µM; with 786-0 renal, 12.7 µM; in the assay with SK-MEL-2 melanoma, 8.47 µM; in the assay with HT29 colon, 10.6 µM.
As to `O=S(=O)([O-])c1ccc2c(c1)-c1nc-2nc2[n-]c(nc3nc(nc4[n-]c(n1)c1ccc(S(=O)(=O)[O-])cc41)-c1cc(S(=O)(=O)[O-])ccc1-3)c1ccc(S(=O)(=O)[O-])cc21.[Cu+2].[Na+]`, the GI50 in the assay with LOX IMVI melanoma was 3.29 µM; in the assay with RPMI-8226 leukemia, greater than 56.4 µM; with MALME-3M melanoma, greater than 100 µM; in the assay with CCRF-CEM leukemia, 0.58 µM; with NCI-H460 lung, 4.65 µM; with HCT-116 colon, 15.8 µM. Moreover, the GI50 is greater than 69.8 µM in the assay on SF-268 CNS, greater than 44 µM with 786-0 renal, greater than 100 µM with SK-MEL-2 melanoma and 3.32 µM in the assay with HT29 colon. Also, the TGI in the assay with LOX IMVI melanoma was greater than 100 µM; in the assay with RPMI-8226 leukemia, greater than 74.3 µM; in the assay on MALME-3M melanoma it was greater than 100 µM; in the assay with CCRF-CEM leukemia, greater than 39.5 µM; in the assay with NCI-H460 lung it was greater than 100 µM; in the assay on HCT-116 colon, greater than 100 µM. Also, the TGI is greater than 100 µM with SF-268 CNS, greater than 69.6 µM in the assay on 786-0 renal, greater than 100 µM in the assay with SK-MEL-2 melanoma and greater than 100 µM with HT29 colon.
Regarding `Cc1nnc(S(=O)(=O)c2ccc(N=Nc3c(N)nc(N)nc3N)cc2)s1`, the TGI with LOX IMVI melanoma, with RPMI-8226 leukemia, with MALME-3M melanoma, in the assay with CCRF-CEM leukemia, in the assay with NCI-H460 lung and in the assay with HCT-116 colon was greater than 100 µM each time. Moreover, the TGI with SF-268 CNS, in the assay on 786-0 renal, in the assay with SK-MEL-2 melanoma and with HT29 colon was greater than 100 µM each time.
`CCN1CCN(c2ccc(Nc3cc(N(C)C(=O)Nc4c(Cl)c(OC)cc(OC)c4Cl)ncn3)cc2)CC1`: the GI50 in the assay with LOX IMVI melanoma is 1.48 µM; with RPMI-8226 leukemia, 1.76 µM; with MALME-3M melanoma, 1.82 µM; in the assay with CCRF-CEM leukemia it was 1.9 µM; with NCI-H460 lung it was 1.87 µM; in the assay on HCT-116 colon, 1.73 µM. The GI50 in the assay with SF-268 CNS was 2.41 µM; in the assay on 786-0 renal, 1.88 µM; in the assay on SK-MEL-2 melanoma it was 7.12 µM; with HT29 colon, 1.55 µM. The TGI is 2.91 µM in the assay on LOX IMVI melanoma; 4.71 µM with RPMI-8226 leukemia; 3.5 µM in the assay on MALME-3M melanoma; 6.01 µM in the assay with CCRF-CEM leukemia; 5.42 µM in the assay on NCI-H460 lung; 5.2 µM in the assay with HCT-116 colon. Also, the TGI turned out to be 28 µM in the assay on SF-268 CNS, 4.27 µM in the assay with 786-0 renal, 22.7 µM in the assay on SK-MEL-2 melanoma and 3.69 µM with HT29 colon.
